Our source for the IC50 values is BindingDB's records for doi:10.1021/jm060314i (Cnrs, 2006).

The test concerns the target 5L hepatoma cell line (Rattus norvegicus). Kind of test: Survival of rat 5L hepatoma cells after 48 hrs by MTS reduction assay.

pIC50: −log10 of the molar value. Structures can show the parent of a compound that is named as a salt. Some results are limits rather than exact numbers.

For the molecule `CN(C)CCO/N=C1/C(c2c(O)[nH]c3c(Br)cccc23)=Nc2ccccc21` [(2'Z,3'E)-7-bromoindirubin-3'-[O-(2-dimethylaminoethyl)oxime] hydrochloride], the pIC50 is < 4.52.

`CN(C)CCO/N=C1/C(c2c(O)[nH]c3c(Br)cccc23)=Nc2ccccc21` [(2'Z,3'E)-7-bromoindirubin-3'-[O-(2-dimethylaminoethyl)oxime]] had a pIC50 of 4.60.

With `Oc1[nH]c2c(Br)cccc2c1C1=Nc2ccccc2/C1=N\OCCN1CCCC1` [(2'Z,3'E)-7-bromoindirubin-3'-[O-(2-pyrrolidin-1-ylethyl)oxime] hydrochloride], the pIC50 was < 4.52.
